Structures are written as SMILES. “And” between values parts separate entries of the source, which are not always exact repeats. Equal values may be shown once.

For test [1], the system named is cos-7 cells. Description: DNA transfection: luciferase expression relative to Lipofectamine 2000. Conditions: for luciferase expression (second part of table, values relative to LIPO2000): 300 ng of DNA per well. It counts as cell-based. The essentials:
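Lipid/DNA complexes, 300 ng luciferase DNA per well at 2.5-25 w/w lipid:DNA, were formed in sodium acetate/Optimem and added to overnight-seeded cos-7 cells. Luciferase was measured by Bright-Glo luminescence after 48 hours and quantified against an enzyme standard curve. Values are expressed as % of Lipofectamine 2000 at 2.5 w/w.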

Test [2] is described as follows: DNA delivery: raw luciferase expression (relative light units) of best-transfecting lipids. In kind it is cell-based. Conditions: 300 ng of DNA per well. As to the method:
Raw values for luciferase expression (relative lights units) of best-transfecting lipids at lipid/DNA (w/w) ratios listed. 300 ng of DNA was added per well.

Where [3] appears, read: 1st column, no head printed (2.5 w/w by the raw values).
Setting [4] is: 2nd column, no head printed (5 w/w by the raw values).
[5] abbreviates: 3rd column, no head printed (10 w/w by the raw values).
Where [6] appears, read: 4th column, no head printed (15 w/w by the raw values).

With `CCCCCCCCCCCCCCNC(=O)CCN(CCCN(CCC(=O)NCCCCCCCCCCCCCC)CCC(=O)NCCCCCCCCCCCCCC)CCC(=O)NCCCCCCCCCCCCCC` [NF100], the “luciferase expression (second part of table, values relative to LIPO2000)” value is on record as 75.9 in test [1] (lipid/DNA 2.5 w/w), 0.5 in test [1] (lipid/DNA 5 w/w), 0.0 in test [1] (lipid/DNA 10 w/w) and 0.0 in test [1] (lipid/DNA 15 w/w). The “Raw values for luciferase expression” value in test [2] (lipid/DNA 2.5 w/w) came to 1061441 relative lights units; in test [2] (lipid/DNA 5 w/w), 8015 relative lights units.

Consider `CCCCCCCCCCCCNC(=O)CCN(CCC(=O)NCCCCCCCCCCCC)CC(C)O` (centres unmarked) [ND21], for which the “luciferase expression (second part of table, values relative to LIPO2000)” value in test [1] (lipid/DNA 2.5 w/w) was 47.4; in test [1] (lipid/DNA 5 w/w), 69.2; in test [1] (lipid/DNA 10 w/w), 18.7; in test [1] (lipid/DNA 15 w/w), 2.6; in test [1] (lipid/DNA 20 w/w), 0.1; in test [1] (lipid/DNA 25 w/w), 0.4. The “Raw values for luciferase expression” value worked out at 1170534 relative lights units in test [2] (lipid/DNA 2.5 w/w) and 1213862 relative lights units in test [2] (lipid/DNA 5 w/w).

As to `CCCCCCCCCCCCNC(=O)CCN(CCCCCCO)CCC(=O)NCCCCCCCCCCCC` [ND36], the “luciferase expression (second part of table, values relative to LIPO2000)” value is recorded as 135.5 in test [1] (lipid/DNA 2.5 w/w); 72.8 in test [1] (lipid/DNA 5 w/w); 84.3 in test [1] (lipid/DNA 10 w/w); 31.6 in test [1] (lipid/DNA 15 w/w); 0.8 in test [1] (lipid/DNA 20 w/w); 0.0 in test [1] (lipid/DNA 25 w/w). The “Raw values for luciferase expression” value in test [2] (lipid/DNA 2.5 w/w) turned out to be 4517622 relative lights units; in test [2] (lipid/DNA 5 w/w), 2945357 relative lights units; in test [2] (lipid/DNA 10 w/w), 2043526 relative lights units; in test [2] (lipid/DNA 15 w/w), 658985 relative lights units.

For the compound `CCCCCCCCCCCCNC(=O)CCN(CCCO)CCC(=O)NCCCCCCCCCCCC` [ND20], the “luciferase expression (second part of table, values relative to LIPO2000)” value in test [1] (lipid/DNA 2.5 w/w) is on record as 278.4; in test [1] (lipid/DNA 5 w/w), 278.1; in test [1] (lipid/DNA 10 w/w), 0.2; in test [1] (lipid/DNA 15 w/w) it was 0.1; in test [1] (lipid/DNA 20 w/w), 0.0; in test [1] (lipid/DNA 25 w/w) it was 0.0. Moreover, the “luciferase expression, second set of columns (replicate set of data)” value (“luciferase expression, second set” for short) was 84.9 in test [1] (setting [3]), 5.5 in test [1] (setting [4]), 0.1 in test [1] (setting [5]) and 0.0 in test [1] (setting [6]). Further, the “Raw values for luciferase expression” value in test [2] (lipid/DNA 2.5 w/w) was 6868960 relative lights units and 7521540 relative lights units.

For the compound `CCCCCCCCCCCCCCNC(=O)CCN(C)CCN(CCC(=O)NCCCCCCCCCCCCCC)CCC(=O)NCCCCCCCCCCCCCC` [NF95], the “luciferase expression (second part of table, values relative to LIPO2000)” value in test [1] (lipid/DNA 2.5 w/w) came out at 131.6; in test [1] (lipid/DNA 5 w/w) it was 141.8; in test [1] (lipid/DNA 10 w/w), 100.5; in test [1] (lipid/DNA 15 w/w) it was 33.9. Moreover, the “luciferase expression, second set” value in test [1] (setting [3]) was found to be 6.0; in test [1] (setting [4]) it was 9.4; in test [1] (setting [5]), 4.7; in test [1] (setting [6]), 12.1. Moreover, the “Raw values for luciferase expression” value in test [2] (lipid/DNA 5 w/w) is 2082965 relative lights units and 3775212 relative lights units; in test [2] (lipid/DNA 10 w/w), 1906488 relative lights units; in test [2] (lipid/DNA 15 w/w), 918612 relative lights units.

Consider `CCCCCCCCCCCCCCNC(=O)CCN(CCC(=O)NCCCCCCCCCCCCCC)CCN(CCO)CCO` [NF86], for which the “luciferase expression (second part of table, values relative to LIPO2000)” value in test [1] (lipid/DNA 2.5 w/w) is given as 56.7; in test [1] (lipid/DNA 5 w/w), 53.3; in test [1] (lipid/DNA 10 w/w) it was 4.5; in test [1] (lipid/DNA 15 w/w), 2.3. Also, the entries for the “Raw values for luciferase expression” value in test [2] (lipid/DNA 2.5 w/w) and in test [2] (lipid/DNA 5 w/w) were 4798383 relative lights units and 4087285 relative lights units, respectively.

For `CCCCCCCCCCCCCCCCNC(=O)CCN(CCO)CCN(CCO)CCC(=O)NCCCCCCCCCCCCCCCC` [NP103], the “luciferase expression (second part of table, values relative to LIPO2000)” value came out at 83.0 in test [1] (lipid/DNA 2.5 w/w), 2.8 in test [1] (lipid/DNA 5 w/w), 0.0 in test [1] (lipid/DNA 10 w/w) and 1.5 in test [1] (lipid/DNA 15 w/w). Besides, the “luciferase expression, second set” value in test [1] (setting [3]) was found to be 2.1; in test [1] (setting [4]), 2.3; in test [1] (setting [5]), 3.8; in test [1] (setting [6]), 1.4. For the same compound, the figures for the “Raw values for luciferase expression” value in test [2] (lipid/DNA 2.5 w/w) and in test [2] (lipid/DNA 5 w/w) were 8798627 relative lights units and 308844 relative lights units, respectively.

On to `CCCCCCCCCCCCNC(=O)CCN(CCC(=O)NCCCCCCCCCCCC)CCc1c[nH]cn1` [ND94], for which the “Raw values for luciferase expression” value in test [2] (lipid/DNA 2.5 w/w) was 774425 relative lights units; in test [2] (lipid/DNA 5 w/w) it was 1382667 relative lights units.

Take `CCCCCCCCCCCCCCNC(=O)CCN(CCCO)CCC(=O)NCCCCCCCCCCCCCC` [NF20]: the “Raw values for luciferase expression” value in test [2] (lipid/DNA 2.5 w/w) was 1814886 relative lights units; in test [2] (lipid/DNA 5 w/w), 1801431 relative lights units.

Turning to `CCCCCCCCCCCCCCNC(=O)CCN(CCC(=O)NCCCCCCCCCCCCCC)C(CO)CO` [NF25], the results for the “Raw values for luciferase expression” value in test [2] (lipid/DNA 2.5 w/w) and in test [2] (lipid/DNA 5 w/w) were 2473702 relative lights units and 1366194 relative lights units, respectively.

Turning to `CCCCCCCCCCCCNC(=O)CCN(CCO)CCN(CCC(=O)NCCCCCCCCCCCC)CCC(=O)NCCCCCCCCCCCC` [ND109], the “Raw values for luciferase expression” value in test [2] (lipid/DNA 2.5 w/w) was determined as 2197484 relative lights units; in test [2] (lipid/DNA 5 w/w), 2087995 relative lights units.

`CCCCCCCCCCCCCCCNC(=O)CCN(CCCN(CCO)CCO)CCC(=O)NCCCCCCCCCCCCCCC` [NG87]: the “Raw values for luciferase expression” value was found to be 823764 relative lights units in test [2] (lipid/DNA 2.5 w/w) and 1005875 relative lights units in test [2] (lipid/DNA 5 w/w).

Turning to `CCCCCCCCCCCCCCCCNC(=O)CCN(C)CCCN(C)CCC(=O)NCCCCCCCCCCCCCCCC` [NP63], the “Raw values for luciferase expression” value came to 1180418 relative lights units in test [2] (lipid/DNA 2.5 w/w), 1543275 relative lights units in test [2] (lipid/DNA 5 w/w), 1388102 relative lights units in test [2] (lipid/DNA 10 w/w) and 798342 relative lights units in test [2] (lipid/DNA 15 w/w).

Regarding `CCCCCCCCCCCCCCCNC(=O)CCN(CCC(=O)NCCCCCCCCCCCCCCC)CCC1CCCN1C` (centres unmarked) [NG77], the “Raw values for luciferase expression” value worked out at 972002 relative lights units in test [2] (lipid/DNA 2.5 w/w) and 1184771 relative lights units in test [2] (lipid/DNA 5 w/w).

For the compound `CCCCCCCCCCCCCCCCNC(=O)CCN(CCCN(CCO)CCO)CCC(=O)NCCCCCCCCCCCCCCCC` [NP87], the “Raw values for luciferase expression” value is 1207376 relative lights units in test [2] (lipid/DNA 10 w/w) and 1192838 relative lights units in test [2] (lipid/DNA 15 w/w).

For `CCCCCCCCCCCCCCCNC(=O)CCN(CCC(=O)NCCCCCCCCCCCCCCC)CCN(CCO)CCO` [NG86], the “Raw values for luciferase expression” value in test [2] (lipid/DNA 2.5 w/w) is listed as 1357355 relative lights units; in test [2] (lipid/DNA 5 w/w), 1521687 relative lights units; in test [2] (lipid/DNA 10 w/w), 1513703 relative lights units; in test [2] (lipid/DNA 15 w/w), 1223360 relative lights units.

`CCCCCCCCCCCCCCCCNC(=O)CCN(CCC(=O)NCCCCCCCCCCCCCCCC)CCN(CCC(=O)NCCCCCCCCCCCCCCCC)CCC(=O)NCCCCCCCCCCCCCCCC` [NP99]: the figures for the “Raw values for luciferase expression” value in test [2] (lipid/DNA 2.5 w/w) and in test [2] (lipid/DNA 5 w/w) were 3202948 relative lights units and 9767 relative lights units, respectively.

`CCCCCCCCCCCCNC(=O)CCN(C)CCCN(CCC(=O)NCCCCCCCCCCCC)CCC(=O)NCCCCCCCCCCCC` [ND96]: the “Raw values for luciferase expression” value in test [2] (lipid/DNA 2.5 w/w) was 2910700 relative lights units; in test [2] (lipid/DNA 5 w/w), 42837 relative lights units.

For `CCCCCCCCCCCCCCNC(=O)CCN(CCOC)CCC(=O)NCCCCCCCCCCCCCC` [NF10], the “Raw values for luciferase expression” value came out at 1192178 relative lights units in test [2] (lipid/DNA 2.5 w/w) and 838283 relative lights units in test [2] (lipid/DNA 5 w/w).

For `CCCCCCCCCCCCCCNC(=O)CCN(CCCOC)CCC(=O)NCCCCCCCCCCCCCC` [NF1], the results for the “Raw values for luciferase expression” value in test [2] (lipid/DNA 2.5 w/w) and in test [2] (lipid/DNA 5 w/w) were 778473 relative lights units and 227587 relative lights units, respectively.

With `CCCCCCCCCCCCCCNC(=O)CCN(C)CCCN(C)CCC(=O)NCCCCCCCCCCCCCC` [NF63], the “Raw values for luciferase expression” value is given as 1141469 relative lights units in test [2] (lipid/DNA 2.5 w/w), 865897 relative lights units in test [2] (lipid/DNA 5 w/w), 3031718 relative lights units in test [2] (lipid/DNA 10 w/w) and 1138429 relative lights units in test [2] (lipid/DNA 15 w/w).

As to `CCCCCCCCCCCCCCCNC(=O)CCN(C)CCN(CCC(=O)NCCCCCCCCCCCCCCC)CCC(=O)NCCCCCCCCCCCCCCC` [NG95], the results for the “Raw values for luciferase expression” value in test [2] (lipid/DNA 10 w/w) and in test [2] (lipid/DNA 15 w/w) were 834849 relative lights units and 1208120 relative lights units, respectively.

The record behind these values is US9006487B2, “Amine-containing lipids and uses thereof” (Massachusetts Institute of Technology, priority 2005, dated 2015).
